Source: patent publication US12522583B2, “Benzimidazole derivatives and aza-benzimidazole derivatives as Janus kinase 2 inhibitors and uses thereof” (Dana-Farber Cancer Institute, Inc., priority 2018, dated 2026)

How the values were obtained:
Test in all cases: KINOMEscan
Format in all cases: binding
Settings in all cases: read-out: percent control
[1] = target: CSNK1A1 (Homo sapiens (Human), UniProt P48729)
Excerpt: (§1) Example 2. In Vitro Kinase Selectivity Profiling of the Compounds of the Present Disclosure

[2] = target: AKT2 (Homo sapiens (Human), UniProt P31751)
Excerpt: as §1

[3] = target: PIK3CA(H1047Y) (Homo sapiens (Human), UniProt P42336, H1047Y)
Excerpt: as §1

[4] = target: PIK4CB (Homo sapiens (Human), UniProt Q9UBF8)
Chain of PIK4CB (Q9UBF8 whole entry): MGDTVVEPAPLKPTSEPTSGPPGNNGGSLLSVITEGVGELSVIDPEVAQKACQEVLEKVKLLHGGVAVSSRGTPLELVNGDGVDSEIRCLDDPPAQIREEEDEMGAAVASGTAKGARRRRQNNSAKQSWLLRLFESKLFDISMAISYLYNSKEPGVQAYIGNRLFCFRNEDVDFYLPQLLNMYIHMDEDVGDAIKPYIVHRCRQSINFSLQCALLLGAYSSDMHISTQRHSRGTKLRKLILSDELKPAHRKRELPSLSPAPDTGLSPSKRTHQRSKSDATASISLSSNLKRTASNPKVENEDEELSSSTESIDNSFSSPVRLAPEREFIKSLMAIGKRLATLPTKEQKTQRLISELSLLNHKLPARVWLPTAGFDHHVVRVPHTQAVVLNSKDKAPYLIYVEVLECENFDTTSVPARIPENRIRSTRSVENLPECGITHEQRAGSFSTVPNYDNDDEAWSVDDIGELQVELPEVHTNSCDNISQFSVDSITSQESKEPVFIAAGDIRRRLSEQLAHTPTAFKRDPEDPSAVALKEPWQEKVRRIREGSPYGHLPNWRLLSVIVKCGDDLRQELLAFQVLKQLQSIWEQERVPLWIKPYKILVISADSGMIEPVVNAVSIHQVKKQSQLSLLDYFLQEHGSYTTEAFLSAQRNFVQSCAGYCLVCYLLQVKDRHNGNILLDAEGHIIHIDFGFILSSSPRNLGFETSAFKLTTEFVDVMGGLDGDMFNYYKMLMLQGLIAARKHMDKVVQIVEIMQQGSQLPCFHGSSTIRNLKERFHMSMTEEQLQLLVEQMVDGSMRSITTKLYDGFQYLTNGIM
Excerpt: as §1

[5] = target: FGFR3 (Homo sapiens (Human), UniProt P22607)
Excerpt: as §1

[6] = target: PRKCI (Homo sapiens (Human), UniProt P41743)
Excerpt: as §1

[7] = target: KIT(D816V) (Homo sapiens (Human), UniProt P10721, D816V)
Chain of KIT(D816V) (P10721 26-976 D816V): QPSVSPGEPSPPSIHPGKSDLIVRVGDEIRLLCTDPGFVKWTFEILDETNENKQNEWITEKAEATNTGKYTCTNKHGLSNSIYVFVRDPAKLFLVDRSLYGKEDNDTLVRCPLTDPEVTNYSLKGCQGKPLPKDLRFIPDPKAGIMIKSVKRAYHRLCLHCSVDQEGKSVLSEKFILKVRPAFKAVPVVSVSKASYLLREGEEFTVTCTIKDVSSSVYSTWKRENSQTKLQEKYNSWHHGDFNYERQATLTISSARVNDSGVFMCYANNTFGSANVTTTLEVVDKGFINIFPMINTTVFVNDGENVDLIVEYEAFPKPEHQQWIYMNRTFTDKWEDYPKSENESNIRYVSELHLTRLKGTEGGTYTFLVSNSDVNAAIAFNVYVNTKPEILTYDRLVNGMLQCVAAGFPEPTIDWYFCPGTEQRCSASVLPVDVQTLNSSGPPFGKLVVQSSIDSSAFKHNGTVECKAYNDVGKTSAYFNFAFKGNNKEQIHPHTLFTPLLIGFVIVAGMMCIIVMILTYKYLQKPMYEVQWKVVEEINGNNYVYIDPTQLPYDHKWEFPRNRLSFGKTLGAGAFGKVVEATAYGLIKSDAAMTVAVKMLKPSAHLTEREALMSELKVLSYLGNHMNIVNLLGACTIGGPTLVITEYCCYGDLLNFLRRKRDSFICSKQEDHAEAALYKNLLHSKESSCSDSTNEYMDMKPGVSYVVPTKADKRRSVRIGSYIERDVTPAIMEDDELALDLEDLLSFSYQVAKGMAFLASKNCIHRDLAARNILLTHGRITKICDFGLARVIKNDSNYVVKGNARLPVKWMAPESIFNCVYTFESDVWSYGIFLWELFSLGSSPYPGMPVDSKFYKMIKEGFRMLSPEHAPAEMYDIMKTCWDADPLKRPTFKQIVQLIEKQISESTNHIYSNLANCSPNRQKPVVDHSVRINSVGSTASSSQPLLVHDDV
Excerpt: as §1

[8] = target: PFTAIRE2 (Homo sapiens (Human), UniProt Q96Q40)
Excerpt: as §1

[9] = target: PRKG2 (Homo sapiens (Human), UniProt Q13237)
Excerpt: as §1

[10] = target: PHKG2 (Homo sapiens (Human), UniProt P15735)
Chain of PHKG2 (P15735 whole entry): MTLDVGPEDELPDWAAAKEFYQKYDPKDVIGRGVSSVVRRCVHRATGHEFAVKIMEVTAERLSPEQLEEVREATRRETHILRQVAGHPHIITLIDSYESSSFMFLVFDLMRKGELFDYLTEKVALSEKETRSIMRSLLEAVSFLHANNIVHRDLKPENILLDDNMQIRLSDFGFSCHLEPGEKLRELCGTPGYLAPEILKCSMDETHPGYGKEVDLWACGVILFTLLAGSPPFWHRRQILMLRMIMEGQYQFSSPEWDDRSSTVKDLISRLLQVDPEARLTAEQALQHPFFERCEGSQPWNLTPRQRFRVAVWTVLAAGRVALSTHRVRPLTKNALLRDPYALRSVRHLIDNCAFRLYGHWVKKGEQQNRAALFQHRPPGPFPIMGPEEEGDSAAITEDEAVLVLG
Excerpt: as §1

[11] = target: KIT(L576P) (Homo sapiens (Human), UniProt P10721, L576P)
Chain of KIT(L576P) (P10721 26-976 L576P): as the sequence (P10721 26-976 D816V) above, with L551P, V791D counted along it
Excerpt: as §1

[12] = target: PIP5K2C (Homo sapiens (Human), UniProt Q8TBX8)
Excerpt: as §1

[13] = target: EGFR(T790M) (Homo sapiens (Human), UniProt P00533, T790M)
Chain of EGFR(T790M) (P00533 25-1210 T790M): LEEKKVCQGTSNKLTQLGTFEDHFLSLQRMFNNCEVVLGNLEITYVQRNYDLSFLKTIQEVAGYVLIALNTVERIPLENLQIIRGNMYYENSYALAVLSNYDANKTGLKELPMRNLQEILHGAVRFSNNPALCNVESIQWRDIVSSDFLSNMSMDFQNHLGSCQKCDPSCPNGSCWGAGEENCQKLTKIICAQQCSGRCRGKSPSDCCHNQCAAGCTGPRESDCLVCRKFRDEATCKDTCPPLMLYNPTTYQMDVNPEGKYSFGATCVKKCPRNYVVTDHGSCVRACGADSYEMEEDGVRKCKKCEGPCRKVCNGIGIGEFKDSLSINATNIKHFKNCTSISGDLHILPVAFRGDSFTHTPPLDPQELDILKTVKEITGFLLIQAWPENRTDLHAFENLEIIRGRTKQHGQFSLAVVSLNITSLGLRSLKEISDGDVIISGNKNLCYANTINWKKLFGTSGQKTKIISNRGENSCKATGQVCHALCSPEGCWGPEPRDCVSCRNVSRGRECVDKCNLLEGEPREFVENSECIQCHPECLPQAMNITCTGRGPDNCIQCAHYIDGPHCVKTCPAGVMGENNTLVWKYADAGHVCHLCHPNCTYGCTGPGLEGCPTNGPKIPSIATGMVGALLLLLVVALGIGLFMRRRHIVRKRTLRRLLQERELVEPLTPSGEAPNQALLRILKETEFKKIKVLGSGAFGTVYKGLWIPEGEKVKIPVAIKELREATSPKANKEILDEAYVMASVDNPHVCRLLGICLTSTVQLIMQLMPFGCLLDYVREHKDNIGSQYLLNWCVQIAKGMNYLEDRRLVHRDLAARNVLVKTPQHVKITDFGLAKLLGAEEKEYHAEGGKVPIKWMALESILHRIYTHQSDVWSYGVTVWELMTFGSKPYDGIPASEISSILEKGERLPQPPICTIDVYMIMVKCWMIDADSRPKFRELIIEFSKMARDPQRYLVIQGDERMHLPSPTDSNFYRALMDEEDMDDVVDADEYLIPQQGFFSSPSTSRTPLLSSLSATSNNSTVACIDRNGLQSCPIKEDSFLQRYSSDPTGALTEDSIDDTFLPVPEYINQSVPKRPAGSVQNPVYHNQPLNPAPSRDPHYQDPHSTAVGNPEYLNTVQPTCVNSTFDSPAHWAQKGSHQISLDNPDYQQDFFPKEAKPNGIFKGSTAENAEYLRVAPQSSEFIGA
Excerpt: as §1

[14] = target: KIT(V559D, V654A) (Homo sapiens (Human), UniProt P10721, V559D/V654A)
Excerpt: as §1

[15] = target: SGK3 (Homo sapiens (Human), UniProt Q96BR1)
Excerpt: as §1

[16] = target: TRKC (Homo sapiens (Human), UniProt Q16288)
Excerpt: as §1

[17] = target: ABL1(F317L)-phosphorylated (Homo sapiens (Human), UniProt P00519, F317L)
Excerpt: as §1

[18] = target: KIT(D816H) (Homo sapiens (Human), UniProt P10721, D816H)
Excerpt: as §1

[19] = target: EGFR(L747-S752del, P753S) (Homo sapiens (Human), UniProt P00533, DEL747-752/P753S)
Excerpt: as §1

[20] = target: PRKCE (Homo sapiens (Human), UniProt Q02156)
Excerpt: as §1

[21] = target: DYRK1A (Homo sapiens (Human), UniProt Q13627)
Excerpt: as §1

[22] = target: KIT (Homo sapiens (Human), UniProt P10721)
Chain of KIT (P10721 26-976): as the sequence (P10721 26-976 D816V) above, with V791D counted along it
Excerpt: as §1

[23] = target: TNIK (Homo sapiens (Human), UniProt Q9UKE5)
Excerpt: as §1

[24] = target: p38-gamma (Homo sapiens (Human), UniProt P53778)
Excerpt: as §1

[25] = target: CASK (Homo sapiens (Human), UniProt O14936)
Excerpt: as §1

[26] = target: ACVR2A (Homo sapiens (Human), UniProt P27037)
Excerpt: as §1

[27] = target: MET(Y1235D) (Homo sapiens (Human), UniProt P08581, Y1235D)
Excerpt: as §1

[28] = target: TLK1 (Homo sapiens (Human), UniProt Q9UKI8)
Excerpt: as §1

[29] = target: FLT3(K663Q) (Homo sapiens (Human), UniProt P36888, K663Q)
Excerpt: as §1

[30] = target: PKAC-beta (Homo sapiens (Human), UniProt P22694)
Excerpt: as §1

[31] = target: PIK3CA(C420R) (Homo sapiens (Human), UniProt P42336, C420R)
Excerpt: as §1

[32] = target: PRKCD (Homo sapiens (Human), UniProt Q05655)
Excerpt: as §1

[33] = target: FGFR3(G697C) (Homo sapiens (Human), UniProt P22607, G697C)
Excerpt: as §1

[34] = target: ZAP70 (Homo sapiens (Human), UniProt P43403)
Excerpt: as §1

[35] = target: RSK2(Kin.Dom.1-N-terminal) (Homo sapiens (Human), UniProt P51812)
Chain of RSK2(Kin.Dom.1-N-terminal) (P51812 68-327 limits assumed): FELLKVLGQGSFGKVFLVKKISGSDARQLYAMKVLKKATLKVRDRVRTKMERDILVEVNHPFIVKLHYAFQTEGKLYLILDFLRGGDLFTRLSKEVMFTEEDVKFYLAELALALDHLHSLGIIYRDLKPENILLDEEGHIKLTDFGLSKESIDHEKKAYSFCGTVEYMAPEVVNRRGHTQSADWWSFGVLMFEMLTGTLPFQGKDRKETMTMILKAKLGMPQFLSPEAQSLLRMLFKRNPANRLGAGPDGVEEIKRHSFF
Excerpt: as §1

[36] = target: RSK3(Kin.Dom.2- C-terminal) (Homo sapiens (Human), UniProt Q15349)
Chain of RSK3(Kin.Dom.2- C-terminal) (Q15349 415-672 limits assumed): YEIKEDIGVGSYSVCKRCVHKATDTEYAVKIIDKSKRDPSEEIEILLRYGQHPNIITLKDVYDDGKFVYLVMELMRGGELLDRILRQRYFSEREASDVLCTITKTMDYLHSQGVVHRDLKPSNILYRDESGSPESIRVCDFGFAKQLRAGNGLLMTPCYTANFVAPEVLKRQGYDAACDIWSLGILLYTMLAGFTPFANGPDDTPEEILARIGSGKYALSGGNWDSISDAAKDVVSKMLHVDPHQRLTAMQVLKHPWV
Excerpt: as §1

[37] = target: MEK4 (Homo sapiens (Human), UniProt P45985)
Excerpt: as §1

[38] = target: PIK3CA(E542K) (Homo sapiens (Human), UniProt P42336, E542K)
Chain of PIK3CA(E542K) (P42336 whole entry E542K): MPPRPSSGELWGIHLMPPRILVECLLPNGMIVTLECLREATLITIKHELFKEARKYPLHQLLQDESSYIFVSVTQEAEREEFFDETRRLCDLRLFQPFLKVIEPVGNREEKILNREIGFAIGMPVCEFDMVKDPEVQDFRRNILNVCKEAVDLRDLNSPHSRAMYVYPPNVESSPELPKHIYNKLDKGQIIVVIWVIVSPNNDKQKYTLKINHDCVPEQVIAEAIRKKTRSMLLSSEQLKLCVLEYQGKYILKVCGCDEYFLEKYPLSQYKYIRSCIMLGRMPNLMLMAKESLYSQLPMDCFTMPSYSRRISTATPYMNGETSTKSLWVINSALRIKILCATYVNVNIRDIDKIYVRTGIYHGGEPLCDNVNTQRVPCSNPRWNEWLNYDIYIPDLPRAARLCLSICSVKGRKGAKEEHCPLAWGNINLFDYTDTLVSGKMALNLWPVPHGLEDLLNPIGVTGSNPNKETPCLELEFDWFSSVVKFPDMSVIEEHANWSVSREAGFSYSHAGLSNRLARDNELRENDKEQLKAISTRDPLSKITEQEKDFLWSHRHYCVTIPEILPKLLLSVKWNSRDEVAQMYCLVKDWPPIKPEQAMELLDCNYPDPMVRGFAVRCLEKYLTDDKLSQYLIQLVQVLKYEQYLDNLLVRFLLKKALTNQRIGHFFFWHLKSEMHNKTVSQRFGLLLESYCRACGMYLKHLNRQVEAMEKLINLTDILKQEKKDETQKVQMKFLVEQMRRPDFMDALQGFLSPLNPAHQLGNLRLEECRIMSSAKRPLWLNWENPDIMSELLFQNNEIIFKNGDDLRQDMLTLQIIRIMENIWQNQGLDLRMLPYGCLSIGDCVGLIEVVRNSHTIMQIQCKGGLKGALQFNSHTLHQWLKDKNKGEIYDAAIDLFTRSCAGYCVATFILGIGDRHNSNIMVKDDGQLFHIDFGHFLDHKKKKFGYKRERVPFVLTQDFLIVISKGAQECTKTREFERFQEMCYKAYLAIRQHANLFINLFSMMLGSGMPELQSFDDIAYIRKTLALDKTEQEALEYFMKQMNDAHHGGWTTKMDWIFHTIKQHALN
Excerpt: as §1

Structure (SMILES)	remaining binding at 1 µM [1] [%]	remaining binding at 1 µM [2] [%]	remaining binding at 1 µM [3] [%]	remaining binding at 1 µM [4] [%]	remaining binding at 1 µM [5] [%]	remaining binding at 1 µM [6] [%]	remaining binding at 1 µM [7] [%]	remaining binding at 1 µM [8] [%]	remaining binding at 1 µM [9] [%]	remaining binding at 1 µM [10] [%]	remaining binding at 1 µM [11] [%]	remaining binding at 1 µM [12] [%]	remaining binding at 1 µM [13] [%]	remaining binding at 1 µM [14] [%]	remaining binding at 1 µM [15] [%]	remaining binding at 1 µM [16] [%]	remaining binding at 1 µM [17] [%]	remaining binding at 1 µM [18] [%]	remaining binding at 1 µM [19] [%]	remaining binding at 1 µM [20] [%]	also measured
CCN1CCN(Cc2ccc(Nc3nc4ccc(Oc5ccnc(NC(C)=O)c5)c(C)c4n3C)cc2C(F)(F)F)CC1 [Compound I-6, N-(4-(2-(4-((4-ethylpiperazin-1-yl)methyl)-3-(trifluoromethyl)phenylamino)-1,7-dimethyl-1H-benzo[d]imidazol-6-yloxy)pyridin-2-yl)acetamide]	100	100	86	73	97	71	50	100	93	100	0	93	83	19	100	3.4	44	44	94	92	remaining binding at 1 µM [21]: 100%; remaining binding at 1 µM [22]: 0.55%; remaining binding at 1 µM [23]: 75%; remaining binding at 1 µM [24]: 62%; remaining binding at 1 µM [25]: 87%; remaining binding at 1 µM [26]: 100%; remaining binding at 1 µM [27]: 44%; remaining binding at 1 µM [28]: 93%; remaining binding at 1 µM [29]: 9.3%; remaining binding at 1 µM [30]: 86%; remaining binding at 1 µM [31]: 99%; remaining binding at 1 µM [32]: 89%; remaining binding at 1 µM [33]: 66%; remaining binding at 1 µM [34]: 99%; remaining binding at 1 µM [35]: 83%; remaining binding at 1 µM [36]: 95%; remaining binding at 1 µM [37]: 91%; remaining binding at 1 µM [38]: 100%
CCN1CCN(Cc2ccc(Nc3nc4ccc(Oc5ccnc(NC(C)=O)c5)cc4n3C)cc2C(F)(F)F)CC1 [Compound I-2]	72	100	62	99	97	95	56	75	92	85	0.2	96	96	7.4	93	44	43	22	80	100	remaining binding at 1 µM [21]: 92%; remaining binding at 1 µM [22]: 0%; remaining binding at 1 µM [23]: 53%; remaining binding at 1 µM [24]: 58%; remaining binding at 1 µM [25]: 78%; remaining binding at 1 µM [26]: 100%; remaining binding at 1 µM [27]: 71%; remaining binding at 1 µM [28]: 87%; remaining binding at 1 µM [29]: 16%; remaining binding at 1 µM [30]: 94%; remaining binding at 1 µM [31]: 100%; remaining binding at 1 µM [32]: 92%; remaining binding at 1 µM [33]: 98%; remaining binding at 1 µM [34]: 100%; remaining binding at 1 µM [35]: 95%; remaining binding at 1 µM [36]: 82%; remaining binding at 1 µM [37]: 97%; remaining binding at 1 µM [38]: 100%
